From the NIST ThermoML archive (doi:10.1021/je4000394)
Numbers after ± are expanded uncertainties.

Experiments:
[1] = Liquid, Vibrating tube method
[2] = xn = mol fraction of the nth substance listed; conditions: Liquid; for mass density: Vibrating tube method; for viscosity: 325.2 K, Flow viscometer

Structure (SMILES): CCCCCCCCCC [decane]
- mass density ([1]; 323.2 K, 100 kPa): 707 ± 0.3 kg/m3
- mass density ([1]; 323.2 K, 1000 kPa): 707.9 ± 0.4 kg/m3
- mass density ([1]; 323.2 K, 2000 kPa): 708.8 ± 0.4 kg/m3
- mass density ([1]; 323.2 K, 3000 kPa): 709.7 ± 0.4 kg/m3
- mass density ([1]; 323.2 K, 4000 kPa): 710.6 ± 0.4 kg/m3
- mass density ([1]; 323.2 K, 5000 kPa): 711.5 ± 0.4 kg/m3
- mass density ([1]; 323.2 K, 6000 kPa): 712.4 ± 0.4 kg/m3
- mass density ([1]; 323.2 K, 7000 kPa): 713.3 ± 0.4 kg/m3
- mass density ([1]; 323.2 K, 8000 kPa): 714.1 ± 0.4 kg/m3
- mass density ([1]; 323.2 K, 9000 kPa): 715 ± 0.4 kg/m3
- mass density ([1]; 323.2 K, 10000 kPa): 715.9 ± 0.4 kg/m3

Structure (SMILES): CCCCCCCCCC [decane] + CCCCCCCCCCCCCCCCCC
- mass density ([2]; 323.2 K, 100 kPa, x1 = 1): 707 ± 0.3 kg/m3
- mass density ([2]; 323.2 K, 1000 kPa, x1 = 1): 707.9 ± 0.4 kg/m3
- mass density ([2]; 323.2 K, 2000 kPa, x1 = 1): 708.8 ± 0.4 kg/m3
- mass density ([2]; 323.2 K, 3000 kPa, x1 = 1): 709.7 ± 0.4 kg/m3
- mass density ([2]; 323.2 K, 4000 kPa, x1 = 1): 710.6 ± 0.4 kg/m3
- mass density ([2]; 323.2 K, 5000 kPa, x1 = 1): 711.5 ± 0.4 kg/m3
- mass density ([2]; 323.2 K, 6000 kPa, x1 = 1): 712.4 ± 0.4 kg/m3
- mass density ([2]; 323.2 K, 7000 kPa, x1 = 1): 713.3 ± 0.4 kg/m3
- mass density ([2]; 323.2 K, 8000 kPa, x1 = 1): 714.1 ± 0.4 kg/m3
- mass density ([2]; 323.2 K, 9000 kPa, x1 = 1): 715 ± 0.4 kg/m3
- mass density ([2]; 323.2 K, 10000 kPa, x1 = 1): 715.9 ± 0.4 kg/m3

Structure (SMILES): CCCCCCCCCCCCCCCCCC [octadecane]
- mass density ([1]; 323 K, 100 kPa): 761.2 ± 0.4 kg/m3
- mass density ([1]; 323 K, 1000 kPa): 761.9 ± 0.4 kg/m3
- mass density ([1]; 323 K, 2000 kPa): 762.7 ± 0.4 kg/m3
- mass density ([1]; 323 K, 3000 kPa): 763.3 ± 0.4 kg/m3
- mass density ([1]; 323 K, 4000 kPa): 764 ± 0.4 kg/m3
- mass density ([1]; 323 K, 5000 kPa): 764.8 ± 0.4 kg/m3
- mass density ([1]; 323 K, 6000 kPa): 765.4 ± 0.4 kg/m3
- mass density ([1]; 323 K, 7000 kPa): 766 ± 0.4 kg/m3
- mass density ([1]; 323 K, 8000 kPa): 766.7 ± 0.4 kg/m3
- mass density ([1]; 323 K, 9000 kPa): 767.5 ± 0.4 kg/m3
- mass density ([1]; 323 K, 10000 kPa): 768.1 ± 0.4 kg/m3

Structure (SMILES): CCCCCCCCCCCCCCCCCC [octadecane] + CCCCCCCCCC
- mass density ([2]; 323 K, 100 kPa, x2 = 0): 761.2 ± 0.4 kg/m3
- mass density ([2]; 323 K, 100 kPa, x2 = 0.75): 726.3 ± 0.4 kg/m3
- mass density ([2]; 323 K, 1000 kPa, x2 = 0): 761.9 ± 0.4 kg/m3
- mass density ([2]; 323 K, 1000 kPa, x2 = 0.75): 727.1 ± 0.4 kg/m3
- mass density ([2]; 323 K, 2000 kPa, x2 = 0): 762.7 ± 0.4 kg/m3
- mass density ([2]; 323 K, 2000 kPa, x2 = 0.75): 728 ± 0.4 kg/m3
- mass density ([2]; 323 K, 3000 kPa, x2 = 0): 763.3 ± 0.4 kg/m3
- mass density ([2]; 323 K, 3000 kPa, x2 = 0.75): 728.8 ± 0.4 kg/m3
- mass density ([2]; 323 K, 4000 kPa, x2 = 0): 764 ± 0.4 kg/m3
- mass density ([2]; 323 K, 4000 kPa, x2 = 0.75): 729.6 ± 0.4 kg/m3
- mass density ([2]; 323 K, 5000 kPa, x2 = 0): 764.8 ± 0.4 kg/m3
- mass density ([2]; 323 K, 5000 kPa, x2 = 0.75): 730.4 ± 0.4 kg/m3
- mass density ([2]; 323 K, 6000 kPa, x2 = 0): 765.4 ± 0.4 kg/m3
- mass density ([2]; 323 K, 6000 kPa, x2 = 0.75): 731.2 ± 0.4 kg/m3
- mass density ([2]; 323 K, 7000 kPa, x2 = 0): 766 ± 0.4 kg/m3
- mass density ([2]; 323 K, 7000 kPa, x2 = 0.75): 732.1 ± 0.4 kg/m3
- mass density ([2]; 323 K, 8000 kPa, x2 = 0): 766.7 ± 0.4 kg/m3
- mass density ([2]; 323 K, 8000 kPa, x2 = 0.75): 732.9 ± 0.4 kg/m3
- mass density ([2]; 323 K, 9000 kPa, x2 = 0): 767.5 ± 0.4 kg/m3
- mass density ([2]; 323 K, 9000 kPa, x2 = 0.75): 733.7 ± 0.4 kg/m3
- mass density ([2]; 323 K, 10000 kPa, x2 = 0): 768.1 ± 0.4 kg/m3
- mass density ([2]; 323 K, 10000 kPa, x2 = 0.75): 734.5 ± 0.4 kg/m3
- mass density ([2]; 323.1 K, 100 kPa, x2 = 0.25): 752.2 ± 0.4 kg/m3
- mass density ([2]; 323.1 K, 100 kPa, x2 = 0.5): 740.8 ± 0.4 kg/m3
- mass density ([2]; 323.1 K, 1000 kPa, x2 = 0.25): 752.9 ± 0.4 kg/m3
- mass density ([2]; 323.1 K, 1000 kPa, x2 = 0.5): 741.6 ± 0.4 kg/m3
- mass density ([2]; 323.1 K, 2000 kPa, x2 = 0.25): 753.7 ± 0.4 kg/m3
- mass density ([2]; 323.1 K, 2000 kPa, x2 = 0.5): 742.4 ± 0.4 kg/m3
- mass density ([2]; 323.1 K, 3000 kPa, x2 = 0.25): 754.5 ± 0.4 kg/m3
- mass density ([2]; 323.1 K, 3000 kPa, x2 = 0.5): 743.1 ± 0.4 kg/m3
- mass density ([2]; 323.1 K, 4000 kPa, x2 = 0.25): 755.2 ± 0.4 kg/m3
- mass density ([2]; 323.1 K, 4000 kPa, x2 = 0.5): 743.9 ± 0.4 kg/m3
- mass density ([2]; 323.1 K, 5000 kPa, x2 = 0.25): 755.9 ± 0.4 kg/m3
- mass density ([2]; 323.1 K, 5000 kPa, x2 = 0.5): 744.7 ± 0.4 kg/m3
- mass density ([2]; 323.1 K, 6000 kPa, x2 = 0.25): 756.7 ± 0.4 kg/m3
- mass density ([2]; 323.1 K, 6000 kPa, x2 = 0.5): 745.5 ± 0.4 kg/m3
- mass density ([2]; 323.1 K, 7000 kPa, x2 = 0.25): 757.3 ± 0.4 kg/m3
- mass density ([2]; 323.1 K, 7000 kPa, x2 = 0.5): 746.2 ± 0.4 kg/m3
- mass density ([2]; 323.1 K, 8000 kPa, x2 = 0.25): 758.1 ± 0.4 kg/m3
- mass density ([2]; 323.1 K, 8000 kPa, x2 = 0.5): 747 ± 0.4 kg/m3
- mass density ([2]; 323.1 K, 9000 kPa, x2 = 0.25): 758.8 ± 0.4 kg/m3
- mass density ([2]; 323.1 K, 9000 kPa, x2 = 0.5): 747.8 ± 0.4 kg/m3
- mass density ([2]; 323.1 K, 10000 kPa, x2 = 0.25): 759.6 ± 0.4 kg/m3
- mass density ([2]; 323.1 K, 10000 kPa, x2 = 0.5): 748.6 ± 0.4 kg/m3
- viscosity ([2]; 100 kPa, x1 = 0.25): 0.883 ± 0.07 mPa·s
- viscosity ([2]; 100 kPa, x1 = 0.5): 1.31 ± 0.12 mPa·s
- viscosity ([2]; 100 kPa, x1 = 0.75): 1.702 ± 0.14 mPa·s
